The record followed here is US20240034743A9, “TRICYCLIC COMPOUNDS AS EGFR INHIBITORS” (QILU PHARMACEUTICAL CO., LTD., priority 2020, published 2024).

The test system of assay [1] is Ba/F3_L858R/T790M/C797S cells. The assay is described as follows: Ba/F3_L858R/T790M/C797S cell proliferation inhibition assay (CellTiter-Glo). In kind it is cell-based. The note with it: cell proliferation, 72 h, CellTiter-Glo, read-out: Ba/F3 (L858R/T790M/C797S) IC50. Put shortly:
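Ba/F3 cells engineered to carry EGFR L858R/T790M/C797S, seeded at 700 cells/well, exposed to serially diluted compound (0.1% DMSO final) for 72 h at 37 °C, 5% CO2. Viability read by CellTiter-Glo luminescence after 30 min at room temperature; IC50 from dose-response fit.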
(In general: Cellular ATP, detected with luciferase, serves as a proxy for viable cell number.)

Assay [2] has as its system Ba/F3_Del19/T790M/C797S cells. The assay is described as follows: Ba/F3_Del19/T790M/C797S cell proliferation inhibition assay (CellTiter-Glo). It counts as cell-based. To be noted: cell proliferation, 72 h, CellTiter-Glo, read-out: Ba/F3 (Del19/T790M/C797S) IC50. In outline:
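Ba/F3 cells carrying EGFR Del19/T790M/C797S were seeded at 700 cells/well and exposed to serially diluted compound (0.1% DMSO final) for 72 h at 37° C. Viability was read by CellTiter-Glo luminescence to give IC50.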

For a further assay, the target named is EGFR WT (wild type EGFR) (Homo sapiens (Human), UniProt P00533). The assay is described as follows: In vitro enzymatic TR-FRET (HTRF KinEASE-TK) kinase assay, EGFR WT. In kind it is biochemical. To be noted: kinase activity, TR-FRET; read-out: EGFR (WT) IC50. In outline:
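Recombinant enzyme preincubated with compound 10 min at room temperature in kinase buffer with 5 mM MgCl2, 1 mM MnCl2, 1 mM DTT. Biotinylated TK substrate plus ATP then added for 40 min. HTRF detection (Sa-XL665, Cryptate antibody) for 1 h; IC50 from 665/615 nm ratio.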
Background: Time-resolved FRET reads energy transfer from a long-lived donor to a nearby acceptor.

In a further assay the target is EGFR L858R/T790M/C797S (Homo sapiens (Human), UniProt P00533, C797S/L858R/T790M). The assay can be described thus: In vitro enzymatic TR-FRET (HTRF KinEASE-TK) kinase assay, EGFR L858R/T790M/C797S. It counts as biochemical. The note with it: kinase activity. As for the experimental part:
(I) In Vitro Enzymatic Experiment for EGFR WT and EGFR L858R/T790M/C797S
In the assay, the inhibition effect of the compound on the kinase activity of EGFR WT (wild type EGFR) and EGFR L858R/T790M/C797S was tested by adopting a time-resolved fluorescence resonance energy transfer (TR-FRET) method, and half maximal inhibitory concentration IC50 of the compound on the kinase activity of EGFR was obtained.
EGFR recombinase and EGFR L858R/T790M/C797S recombinase, purchased from Signalchem.
HTRF KinEASE-TK kit, purchased from Cisbio.
DTT, MnCl2, and MgCl2, purchased from Sigma.
ATP, purchased from Promega.
Brigatinib, purchased from Selleck.
1) 1× working solution was prepared: 5 mM MgCl2; 1 mM DTT; 1 mM MnCl2 and 1× kinase buffer (in kit).
2) […] of gradiently-diluted compound was transferred to a 384-well plate using Echo 550 (Labcyte).
3) 5 μL of 2× EGFR WT or EGFR L858R/T790M/C797S recombinase solution was added to the 384-well plate, and the plate was incubated at room temperature for 10 min.
4) 5 μL of 2× TK-substrate-biotin substrate solution (containing ATP) was added to the 384-well plate, and the plate was incubated at room temperature for 40 min.
5) 5 μL of assay solution containing Sa-XL 665 HTRF and 5 μL of TK-antibody-Cryptatewas were added to the plate, and the plate was incubated at room temperature for 1 h.
6) The fluorescence signal values at 615 nm and 665 nm were measured for each well using an Envision microplate reader (PerkinElmer).
7) The ratio of fluorescence signal values at 665 nm and 615 nm was calculated for each well.
8) Data analysis was performed using GraphPad Prism software to give the IC50 for compounds.

Another assay deals with A431 cells (EGFR WT). The assay is described as follows: A431 cell proliferation inhibition assay (CellTiter-Glo). In kind it is cell-based. The note with it: cell proliferation, 72 h, CellTiter-Glo, read-out: A431 EGFR WT IC50. Put shortly:
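Seeded cells grown 24 h, then exposed 72 h (37° C, 5% CO2) to graded compound dilutions at 0.1% DMSO final. Viability read by CellTiter-Glo luminescence after 30 min at room temperature; IC50 fitted from the dose curve.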

Molecules are shown by their SMILES. Like-named read-outs stand apart in the source and are kept apart here.

Chain of EGFR L858R/T790M/C797S (P00533 25-1210 T790M/C797S/L858R): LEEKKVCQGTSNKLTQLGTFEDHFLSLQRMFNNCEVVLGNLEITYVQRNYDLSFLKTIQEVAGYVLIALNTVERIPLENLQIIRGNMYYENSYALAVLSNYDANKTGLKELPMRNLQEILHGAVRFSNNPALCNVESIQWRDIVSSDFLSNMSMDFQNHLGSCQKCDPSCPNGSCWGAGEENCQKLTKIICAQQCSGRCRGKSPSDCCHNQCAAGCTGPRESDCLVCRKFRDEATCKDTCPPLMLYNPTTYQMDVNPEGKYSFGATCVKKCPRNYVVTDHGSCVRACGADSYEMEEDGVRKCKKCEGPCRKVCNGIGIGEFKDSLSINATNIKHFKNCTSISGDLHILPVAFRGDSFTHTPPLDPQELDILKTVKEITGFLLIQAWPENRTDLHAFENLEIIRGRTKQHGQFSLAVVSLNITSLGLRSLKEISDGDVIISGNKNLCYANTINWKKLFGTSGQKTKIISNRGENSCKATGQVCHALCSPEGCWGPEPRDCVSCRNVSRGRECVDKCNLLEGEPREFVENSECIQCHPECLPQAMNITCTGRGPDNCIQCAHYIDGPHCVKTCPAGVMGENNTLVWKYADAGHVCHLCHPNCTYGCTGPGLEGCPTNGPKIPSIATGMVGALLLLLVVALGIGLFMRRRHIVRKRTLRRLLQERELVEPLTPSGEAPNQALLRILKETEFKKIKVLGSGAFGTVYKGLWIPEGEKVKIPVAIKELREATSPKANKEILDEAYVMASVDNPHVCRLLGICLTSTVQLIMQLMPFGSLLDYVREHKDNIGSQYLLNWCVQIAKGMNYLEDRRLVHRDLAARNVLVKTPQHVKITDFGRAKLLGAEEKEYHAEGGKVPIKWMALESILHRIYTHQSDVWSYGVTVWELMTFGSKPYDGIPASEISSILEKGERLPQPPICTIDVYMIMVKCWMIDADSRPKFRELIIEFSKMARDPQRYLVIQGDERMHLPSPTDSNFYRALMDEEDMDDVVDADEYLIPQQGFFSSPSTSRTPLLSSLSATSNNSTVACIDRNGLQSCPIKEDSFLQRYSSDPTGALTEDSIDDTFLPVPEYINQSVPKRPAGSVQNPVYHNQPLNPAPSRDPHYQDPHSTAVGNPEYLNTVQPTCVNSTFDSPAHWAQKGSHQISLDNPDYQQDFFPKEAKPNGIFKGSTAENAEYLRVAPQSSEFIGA
Chain of EGFR WT (wild type EGFR) (P00533 25-1210): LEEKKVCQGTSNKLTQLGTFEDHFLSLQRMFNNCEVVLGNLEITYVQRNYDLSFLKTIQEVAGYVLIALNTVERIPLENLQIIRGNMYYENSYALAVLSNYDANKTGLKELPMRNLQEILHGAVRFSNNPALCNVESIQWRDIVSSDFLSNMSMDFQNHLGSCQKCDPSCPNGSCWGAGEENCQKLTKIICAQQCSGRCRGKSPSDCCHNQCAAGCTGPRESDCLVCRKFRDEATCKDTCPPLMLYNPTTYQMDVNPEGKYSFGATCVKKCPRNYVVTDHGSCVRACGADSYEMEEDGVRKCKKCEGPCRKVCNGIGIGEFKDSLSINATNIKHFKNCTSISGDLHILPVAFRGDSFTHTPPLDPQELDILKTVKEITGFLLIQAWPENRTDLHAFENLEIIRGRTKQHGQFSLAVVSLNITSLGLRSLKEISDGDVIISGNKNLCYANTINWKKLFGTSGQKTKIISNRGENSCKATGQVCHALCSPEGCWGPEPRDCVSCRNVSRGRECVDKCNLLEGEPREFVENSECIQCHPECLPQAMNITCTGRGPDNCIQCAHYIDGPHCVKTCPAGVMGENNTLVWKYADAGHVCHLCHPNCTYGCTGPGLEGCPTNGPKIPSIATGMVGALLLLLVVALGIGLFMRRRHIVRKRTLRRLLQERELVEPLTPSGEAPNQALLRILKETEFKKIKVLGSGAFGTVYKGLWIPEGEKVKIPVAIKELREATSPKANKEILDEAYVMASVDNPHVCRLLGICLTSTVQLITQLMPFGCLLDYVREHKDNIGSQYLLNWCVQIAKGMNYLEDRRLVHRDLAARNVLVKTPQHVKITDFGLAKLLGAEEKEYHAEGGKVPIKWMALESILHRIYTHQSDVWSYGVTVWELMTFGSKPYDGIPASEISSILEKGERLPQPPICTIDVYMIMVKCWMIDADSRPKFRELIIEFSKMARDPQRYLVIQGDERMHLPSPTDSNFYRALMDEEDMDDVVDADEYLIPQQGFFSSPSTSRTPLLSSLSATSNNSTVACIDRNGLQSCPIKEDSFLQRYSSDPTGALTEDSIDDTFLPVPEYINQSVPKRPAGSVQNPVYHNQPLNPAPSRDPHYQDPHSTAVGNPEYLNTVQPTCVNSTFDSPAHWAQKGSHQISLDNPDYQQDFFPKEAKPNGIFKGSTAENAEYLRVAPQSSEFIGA

As for `COc1cc2c(cc1Nc1ncc(Br)c(Nc3ccccc3P(C)(C)=O)n1)-c1cnn(C)c1CCN2[C@@H]1CCN(C)C[C@H]1F` (single isomer, unassigned) [Compound 66A], the IC50 in assay [1] was 0.01 to 0.05 µM; in assay [2], less than 0.01 µM; at EGFR WT (wild type EGFR), 0.001 to 0.01 µM; against EGFR L858R/T790M/C797S, less than 0.001 µM; with A431 cells (EGFR WT) it was 0.1 to 1 µM.
With `COc1cc2c(cc1Nc1ncc(Br)c(Nc3ccc4nccnc4c3NS(C)(=O)=O)n1)-c1cccnc1CCN2C(C)C` [Compound 116], the IC50 in assay [1] (Mus musculus, BaF3) lay within 0.05 to 0.1 µM; in assay [2] (Mus musculus, BaF3), 0.01 to 0.05 µM; on EGFR WT (wild type EGFR), 0.05 to 0.1 µM; against EGFR L858R/T790M/C797S, 0.001 to 0.01 µM; in the assay on A431 cells (EGFR WT) (Homo sapiens, A-431), 0.1 to 1 µM.
On to `COc1cc2c(cc1Nc1nccc(Nc3ccccc3P(C)(C)=O)n1)-c1cnn(C)c1CCN2C(C)C` [Compound 102], for which the IC50 in assay [1] (Mus musculus, BaF3) was 0.1 to 1 µM; in assay [2] (Mus musculus, BaF3), 0.05 to 0.1 µM; on EGFR WT (wild type EGFR) it was 0.01 to 0.05 µM; against EGFR L858R/T790M/C797S, less than 0.001 µM; in the assay with A431 cells (EGFR WT) (Homo sapiens, A-431), greater than 1 µM.
On the same counts, the results for `COc1nc2c(cc1Nc1ncc(Br)c(Nc3ccc4nccnc4c3NS(C)(=O)=O)n1)-c1cnn(C)c1CCN2C(C)C` [Compound 86] are 0.01 to 0.05 µM, less than 0.01 µM, 0.001 to 0.01 µM, 0.001 to 0.01 µM and 0.1 to 1 µM.
For the compound `COc1cc2c(cc1Nc1ncc(Br)c(Nc3ccc4nccnc4c3P(C)(C)=O)n1)-c1cnn(C)c1CCN2C1CCN(C)C[C@@H]1F` (stereo partly drawn) [Compound 68], the IC50 in assay [1] is less than 0.01 µM; in assay [2], less than 0.01 µM; at EGFR WT (wild type EGFR), less than 0.001 µM; against EGFR L858R/T790M/C797S, less than 0.001 µM; in the assay on A431 cells (EGFR WT), 0.05 to 0.1 µM.
For the compound `COc1cc2c(cc1Nc1ncc(Br)c(Nc3ccc4nccnc4c3P(C)(C)=O)n1)-c1cccnc1CCN2C` [Compound 108], the IC50 in assay [1] (Mus musculus, BaF3) was 0.01 to 0.05 µM; in assay [2] (Mus musculus, BaF3), less than 0.01 µM; at EGFR WT (wild type EGFR), 0.01 to 0.05 µM; against EGFR L858R/T790M/C797S, less than 0.001 µM; in the assay on A431 cells (EGFR WT) (Homo sapiens, A-431), 0.1 to 1 µM.
On to `Cc1cnc(Nc2cc3c(cc2OC(C)C)N(C)CCc2c-3cnn2C)nc1Nc1ccccc1P(C)(C)=O` [Compound 18], for which the IC50 in assay [1] (Mus musculus, BaF3) was 0.1 to 1 µM; in assay [2] (Mus musculus, BaF3), 0.05 to 0.1 µM; on EGFR WT (wild type EGFR), 0.05 to 0.1 µM; against EGFR L858R/T790M/C797S it was 0.001 to 0.01 µM; with A431 cells (EGFR WT) (Homo sapiens, A-431) it was greater than 1 µM.
On to `COc1cc2c(cc1Nc1ncc(Br)c(Nc3ccc4nccnc4c3NS(C)(=O)=O)n1)-c1cnn(C)c1CCN2CC(F)(F)F` [Compound 125], for which the IC50 in assay [1] (Mus musculus, BaF3) is 0.01 to 0.05 µM; in assay [2] (Mus musculus, BaF3), less than 0.01 µM; at EGFR WT (wild type EGFR), greater than 1 µM; against EGFR L858R/T790M/C797S, 0.1 to 1 µM; with A431 cells (EGFR WT) (Homo sapiens, A-431) it was 0.1 to 1 µM.
As for `COc1ccc(Cn2ncc3c2CCN(C)c2cc(OC)c(Nc4ncc(Br)c(Nc5ccccc5P(C)(C)=O)n4)cc2-3)cc1` [Compound 34], the IC50 in assay [1] (Mus musculus, BaF3) was 0.01 to 0.05 µM; in assay [2] (Mus musculus, BaF3), 0.01 to 0.05 µM; on EGFR WT (wild type EGFR), 0.05 to 0.1 µM; at EGFR L858R/T790M/C797S, 0.001 to 0.01 µM; with A431 cells (EGFR WT) (Homo sapiens, A-431) it was greater than 1 µM.
